The text below walks through data of PubChem BioAssay (NCI).

Among the test systems are MOLT-4 leukemia; SF-295 CNS; HOP-62 NSCLC; KM12 colon; DU-145 prostate; TK-10 renal; SF-268 CNS; NCI-H460 lung; IGROV1 ovarian; SNB-75 CNS.
Holding throughout (experiment): growth of human tumour cells (NCI), 48 h

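Growth conditions: 96-well plates. Treatment: test compound, 48 hours, 5 concentrations. Analysis: linear interpolation between bracketing concentrations; unreached endpoints set to highest concentration. GI50 marks 50% less growth. The concentration for full growth arrest is given as TGI.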 Bounds are passed on as bounds.

For the molecule `Clc1ccc2c(NCCNc3nc(N4CCCC4)nc4ccccc34)ccnc2c1`, the GI50 in the assay on MOLT-4 leukemia is 0.538 µM; with SF-295 CNS, 1.47 µM; in the assay on HOP-62 NSCLC it was 1.49 µM; in the assay with KM12 colon, 1.02 µM; with DU-145 prostate it was 1.17 µM; with TK-10 renal, 2.07 µM. The GI50 with SF-268 CNS is 1.59 µM; with NCI-H460 lung it was 0.22 µM; in the assay with IGROV1 ovarian, 1.65 µM; in the assay with SNB-75 CNS it was 1.37 µM. Also, the TGI with MOLT-4 leukemia is 5.1 µM; with SF-295 CNS it was 2.88 µM; with HOP-62 NSCLC it was 3.49 µM; in the assay with KM12 colon, 2.46 µM; in the assay with DU-145 prostate, 2.73 µM; in the assay with TK-10 renal, 4.2 µM. The TGI in the assay with SF-268 CNS is 5.41 µM; with NCI-H460 lung it was 0.506 µM; in the assay with IGROV1 ovarian, 4.6 µM; in the assay on SNB-75 CNS, 3 µM.
Consider `CC[CH2][Sn]([CH2]CC)([O]C(=O)Cc1ccc(F)cc1)[O][Sn]([CH2]CC)([CH2]CC)[O]C(=O)Cc1ccc(F)cc1`, for which the GI50 was 0.0614 µM in the assay with MOLT-4 leukemia; 0.587 µM in the assay with SF-295 CNS; 1.25 µM in the assay with HOP-62 NSCLC; 0.702 µM in the assay on KM12 colon; 0.537 µM in the assay on DU-145 prostate; 0.125 µM with TK-10 renal. Moreover, the GI50 with SF-268 CNS is 0.13 µM; in the assay with NCI-H460 lung, 1.34 µM; in the assay with IGROV1 ovarian, 0.718 µM; with SNB-75 CNS, 0.27 µM. In addition, the TGI in the assay on MOLT-4 leukemia is 9.15 µM; with SF-295 CNS it was 1.57 µM; in the assay on HOP-62 NSCLC, 2.69 µM; with KM12 colon, 2.06 µM; in the assay with DU-145 prostate it was 1.8 µM; in the assay on TK-10 renal, 0.393 µM. Also, the TGI in the assay with SF-268 CNS came out at 0.606 µM; in the assay with NCI-H460 lung it was 2.7 µM; in the assay on IGROV1 ovarian, 2.04 µM; in the assay on SNB-75 CNS, 1.43 µM.
As for `Cc1c(-c2nnc(-c3cc(Cl)c(Cl)cc3Cl)o2)nnn1-c1ccnc2c(C(F)(F)F)cccc12`, the GI50 in the assay on MOLT-4 leukemia was 36.9 µM; in the assay with SF-295 CNS, 27.6 µM; with HOP-62 NSCLC it was 20.5 µM; with KM12 colon, 24.6 µM; with DU-145 prostate it was 19.5 µM; in the assay on TK-10 renal it was 32.2 µM. Also, the GI50 with SF-268 CNS is 25 µM; with NCI-H460 lung, 21.7 µM; in the assay with IGROV1 ovarian it was 27.1 µM; in the assay with SNB-75 CNS, 18.7 µM. Also, the TGI is over 100 µM with MOLT-4 leukemia; 76.2 µM in the assay on SF-295 CNS; 47.7 µM in the assay with HOP-62 NSCLC; 67.4 µM with KM12 colon; 41.6 µM in the assay with DU-145 prostate; 87 µM in the assay on TK-10 renal. Further, the TGI in the assay on SF-268 CNS came to 62.2 µM; in the assay with NCI-H460 lung it was 42.9 µM; in the assay on IGROV1 ovarian it was 71.7 µM; in the assay with SNB-75 CNS, 43.5 µM.
As to `N#CSc1ccc(S(N)(=O)=O)cc1`, the TGI in the assay on MOLT-4 leukemia is 29.6 µM; in the assay on SF-295 CNS it was over 100 µM; with HOP-62 NSCLC, over 100 µM; in the assay with KM12 colon it was over 100 µM; in the assay on DU-145 prostate, over 100 µM; in the assay on TK-10 renal it was over 100 µM. The TGI with SF-268 CNS, in the assay with NCI-H460 lung, in the assay with IGROV1 ovarian and in the assay on SNB-75 CNS was over 100 µM throughout.
Take `COc1cc(C)c(NC(=O)CN(C)C)cc1Nc1nc(Nc2cccc(F)c2C(N)=O)c2cc[nH]c2n1`: the GI50 in the assay with MOLT-4 leukemia is 1.09 µM; in the assay with SF-295 CNS, 2.13 µM; with HOP-62 NSCLC it was 1.24 µM; in the assay with KM12 colon it was 0.524 µM; with DU-145 prostate, 0.826 µM; in the assay on TK-10 renal, 1.93 µM. For the same molecule, the GI50 was 1.27 µM in the assay on SF-268 CNS, 0.604 µM in the assay on NCI-H460 lung, 1.91 µM with IGROV1 ovarian and 3.37 µM with SNB-75 CNS. Besides, the TGI with MOLT-4 leukemia was found to be 25 µM; with SF-295 CNS, 11.1 µM; in the assay with HOP-62 NSCLC, 5.54 µM; in the assay on KM12 colon it was 1.92 µM; in the assay with DU-145 prostate, 3.7 µM; with TK-10 renal, 5.55 µM. Moreover, the TGI in the assay on SF-268 CNS is 5.47 µM; with NCI-H460 lung it was 4.49 µM; with IGROV1 ovarian it was 5.81 µM; in the assay on SNB-75 CNS, 6.92 µM.
In the case of `O=C(O)c1ccccc1Nc1ccc2nnc(-c3ccncc3)n2n1`, the GI50 was 6.99 µM with MOLT-4 leukemia; 13.3 µM in the assay on SF-295 CNS; 15.4 µM in the assay on HOP-62 NSCLC; 7.34 µM in the assay with KM12 colon; 11.5 µM in the assay with DU-145 prostate; 7.13 µM with TK-10 renal. Further, the GI50 in the assay with SF-268 CNS is 5.6 µM; in the assay with NCI-H460 lung it was 4.27 µM; with IGROV1 ovarian it was 5.29 µM; in the assay on SNB-75 CNS, 12.2 µM. In addition, the TGI is over 100 µM in the assay with MOLT-4 leukemia; 40.1 µM with SF-295 CNS; 33.5 µM in the assay on HOP-62 NSCLC; 23.9 µM in the assay on KM12 colon; 25.6 µM with DU-145 prostate; 25 µM in the assay on TK-10 renal. For the same molecule, the TGI with SF-268 CNS was 29.2 µM; with NCI-H460 lung, 24 µM; in the assay on IGROV1 ovarian it was 22.9 µM; with SNB-75 CNS, 25 µM.
As for `COc1ccc(C(c2cc3c(cc2O)OCO3)N2CCOCC2)cc1OC` (stereo not given), the TGI in the assay with MOLT-4 leukemia turned out to be 80.8 µM; with SF-295 CNS, 27.2 µM; with HOP-62 NSCLC it was 29.1 µM; in the assay on KM12 colon, 24.9 µM; in the assay on DU-145 prostate, 24.4 µM; in the assay on TK-10 renal, 26.1 µM. The TGI in the assay on SF-268 CNS came to 25.5 µM; in the assay on NCI-H460 lung, 71.9 µM; with IGROV1 ovarian, 29.6 µM; in the assay with SNB-75 CNS, 31.8 µM.
